Data on five compounds can be found in EPA's ToxRefDB 2.

Usually LOAEL stands for the lowest tested level that showed an adverse finding. Usually NOAEL stands for the highest dose or exposure tested at which no adverse effect was seen.

Series [1] deals with mouse. Conditions: Carcinogenicity, b6c3f1, Oral, Gavage/Intubation, dose end: 60 week, group: systemic.
Series [2] relates to rat. The following applies: Carcinogenicity; other; Oral; Gavage/Intubation; dose end: 78 week; group: systemic; systemic / in life observation / body weight / body weight gain + systemic / pathology microscopic / kidney / nephropathy + systemic / ….
Series [3] relates to rat. The following applies: Subchronic oral toxicity in rodents, sprague dawley, Feed, dose end: 13 week, group: systemic.
Another series relates to rabbit. The following applies: Prenatal developmental toxicity study, new zealand white, Oral, Gavage/Intubation, dose end: 19 GD.
The test system of series [4] is rat. Conditions: Prenatal developmental toxicity study, other, Oral, Gavage/Intubation, dose end: 15 GD.
Series [5] relates to rat. Conditions: Fertility (Segment I), fischer, Oral, Feed, dose end: 16 weeks (premating).
The test system of series [6] is rat. The following applies: Combined chronic toxicity/carcinogenicity, fischer, Oral, Feed, dose end: 2 year, group: systemic.
The subject of series [7] is rat. Conditions: Subchronic oral toxicity in rodents, fischer, Feed, dose end: 26 week, group: systemic.
For series [8], the system named is mouse. Conditions: Prenatal developmental toxicity study, cd1, Oral, Feed, dose end: 15 GD.
Series [9] concerns rat. The following applies: Multigenerational reproductive toxicity study, other, Oral, Gavage/Intubation, dose end: 2 generation.
Series [10] deals with rat. Conditions: Multigenerational reproductive toxicity study, other, Oral, Gavage/Intubation, dose end: 2 generation. This is another data set of the same source.
Series [11] concerns rat. Conditions: Prenatal developmental toxicity study, sprague dawley, Oral, Feed, dose end: 15 GD.
The test system of series [12] is mouse. The following applies: Subchronic oral toxicity in rodents, b6c3f1, Feed, dose end: 91 day, group: systemic, systemic / in life observation / body weight / body weight gain.
Series [13] relates to mouse. The following applies: Carcinogenicity; b6c3f1; Oral; Feed; dose end: 2 year; group: systemic; systemic / in life observation / body weight / body weight.
The test system of series [14] is rat. Conditions: Combined chronic toxicity/carcinogenicity, fischer, Oral, Feed, dose end: 2 year, group: systemic. The source holds these as a separate data set.
Another series concerns dog. Conditions: Chronic toxicity, beagle, Injection, Subcutaneous, dose end: 74 week, group: systemic.
Series [15] concerns rat. Conditions: Developmental neurotoxicity study; other; Injection; Intraperitoneal; dose end: 141 PND; group: cannot be grouped; systemic / clinical chemistry / norepinephrine (noradrenaline) / norepinephrine (noradrenaline) + systemic / in life observation / water ….
For series [16], the system named is rat. Conditions: Developmental neurotoxicity study; wistar; Oral; Water; dose end: 60 PND; group: cannot be grouped; systemic / in life observation / body weight / offspring (pup) weight gain.
Setting [17] is: systemic / pathology microscopic / kidney / nephropathy.
The mark [18] stands for this setting: systemic / pathology microscopic / kidney / nephropathy + systemic / pathology microscopic / stomach / squamous cell carcinoma + systemic / ….
Setting [19] is: systemic / clinical chemistry / alanine aminotransferase (alt/sgpt) / alanine aminotransferase (alt/sgpt) + systemic / clinical chemistry / ….
The mark [20] stands for this setting: systemic / urinalysis / appearance and color / appearance and color + systemic / organ weight / liver / relative to body weight.
[21] abbreviates: group: developmental, developmental / developmental malformation / general / [other] + developmental / developmental malformation / bone / arthrogryposis + ….
Setting [22] is: group: maternal, systemic / in life observation / body weight / body weight + systemic / in life observation / food consumption / food efficiency + systemic….
[23] abbreviates: group: developmental, developmental / developmental malformation / bone / incomplete ossification + developmental / developmental malformation / bone / unossified.
The mark [24] stands for this setting: group: maternal, reproductive / reproductive performance / aborted / aborted + systemic / in life observation / body weight / body weight + systemic / in ….
Setting [25] is: group: maternal, reproductive / reproductive performance / fertility / fertility.
Setting [26] is: group: parental, systemic / hematology / erythrocyte (rbc) count differential / erythrocyte (rbc) + systemic / hematology / hemoglobin (hgb) / hemoglobin (….
Setting [27] is: systemic / organ weight / kidney / relative to body weight.
Setting [28] is: systemic / hematology / anemia / anemia - macrocytic + systemic / hematology / erythrocyte (rbc) count differential / erythrocyte (rbc) + ….
Setting [29] is: group: developmental, developmental / developmental malformation / bone / exencephaly + developmental / developmental malformation / bone / [other] + ….
[30] abbreviates: group: maternal, reproductive / offspring survival early / litter size / litter size + reproductive / offspring survival early / live fetuses / live fetuses….
[31] abbreviates: group: offspring, systemic / clinical chemistry / triiodothyronine (t3) / triiodothyronine (t3), total + systemic / in life observation / body weight / ….
Setting [32] is: group: parental, systemic / in life observation / clinical signs / salivation + systemic / organ weight / kidney / absolute + systemic / organ weight / ….
Setting [33] is: group: reproductive, reproductive / offspring survival early / live fetuses / live fetuses.
[34] abbreviates: group: offspring, developmental / developmental landmark / anogenital distance (agd) / anogenital distance (agd).
Setting [35] is: group: reproductive, reproductive / reproductive performance / fertility / fertility.
[36] abbreviates: group: developmental, developmental / developmental malformation / bone / [other] + developmental / developmental malformation / bone / bipartite ossification + ….
Where [37] appears, read: group: maternal, reproductive / reproductive performance / resorptions / resorptions + systemic / in life observation / body weight / body weight + systemic….
Setting [38] is: systemic / in life observation / body weight / body weight + systemic / in life observation / food consumption / food consumption + systemic….
Setting [39] is: systemic / pathology gross / full gross necropsy / leukemia mononuclear + systemic / in life observation / body weight / body weight + ….
[40] abbreviates: systemic / clinical chemistry / cholesterol / cholesterol + systemic / clinical chemistry / glucose / glucose + systemic / hematology / [….
[41] abbreviates: systemic / clinical chemistry / cholesterol / cholesterol + systemic / hematology / [other] / [other] + systemic / hematology / hematocrit (….

Regarding `ClCC(Br)CBr` (stereo not drawn) [1,2-Dibromo-3-chloropropane], in the series on mouse [1] (setting [17]), the LOAEL was 110 mg/kg/day and the no-observed-adverse-effect level (NOAEL) was below 110 mg/kg/day. Further, in the series on mouse [1] (setting [18]), the LEL stood at 110 mg/kg/day and the NEL is below 110 mg/kg/day. Moreover, in the series on rat [2], the LEL came out at 15 mg/kg/day, the LOAEL turned out to be 15 mg/kg/day, the NEL is below 15 mg/kg/day and the NOAEL was below 15 mg/kg/day.

In the case of `CCC(C)Nc1c([N+](=O)[O-])cc(C(C)(C)C)cc1[N+](=O)[O-]` (stereo not drawn) [Butralin], the LOAEL in the series on rat [3] (setting [19]) is 50 mg/kg/day; in the series with rabbit (group: developmental, developmental / developmental malformation / general / [other]), 45 mg/kg/day; with rabbit (group: maternal, systemic / in life observation / body weight / body weight + systemic / in life observation / food consumption / food efficiency), 135 mg/kg/day; with rat [4] (setting [23]) it was 500 mg/kg/day; with rat [4] (setting [24]), 1250 mg/kg/day. Further, the NOAEL in the series on rat [3] (setting [19]) is 10 mg/kg/day; in the series with rabbit (setting [21]) it was 15 mg/kg/day; in the series on rabbit (setting [22]) it was 45 mg/kg/day; with rat [4] (setting [23]) it was below 500 mg/kg/day; with rat [4] (setting [24]) it was 500 mg/kg/day. Also, the LEL is 10 mg/kg/day with rat [3] (setting [20]); 45 mg/kg/day in the series on rabbit (setting [21]); 135 mg/kg/day with rabbit (setting [22]); 500 mg/kg/day in the series with rat [4] (setting [23]); 1250 mg/kg/day in the series on rat [4] (setting [24]). The NEL was below 10 mg/kg/day with rat [3] (setting [20]); 15 mg/kg/day with rabbit (setting [21]); 45 mg/kg/day with rabbit (setting [22]); below 500 mg/kg/day in the series with rat [4] (setting [23]); 500 mg/kg/day in the series with rat [4] (setting [24]).

Consider `CCCCOC(=O)c1ccccc1C(=O)OCc1ccccc1` [Butyl benzyl phthalate], for which the LEL in the series on rat [5] (setting [25]) was determined as 2200 mg/kg/day; in the series with rat [5] (group: parental, systemic / pathology gross / sperm measure / sperm count), 200 mg/kg/day; with rat [6] (setting [27]) it was 120 mg/kg/day; with rat [7] (systemic / hematology / erythrocyte (rbc) count differential / erythrocyte (rbc)), 180 mg/kg/day; in the series on mouse [8] (group: developmental, developmental / developmental malformation / bone / exencephaly), 910 mg/kg/day; with mouse [8] (group: maternal, reproductive / offspring survival early / litter size / litter size + reproductive / offspring survival early / live fetuses / live fetuses), 910 mg/kg/day. Also, the LEL turned out to be 100 mg/kg/day with rat [9] (setting [31]); 100 mg/kg/day in the series on rat [9] (setting [32]); 500 mg/kg/day in the series with rat [9] (setting [33]); 100 mg/kg/day in the series on rat [10] (setting [34]); 200 mg/kg/day in the series with rat [10] (group: parental, systemic / in life observation / clinical signs / salivation + systemic / organ weight / kidney / absolute + systemic / organ weight / liver…); 400 mg/kg/day with rat [10] (setting [35]). Besides, the LEL in the series on rat [11] (group: developmental, developmental / developmental malformation / bone / short supernumerary) turned out to be 1100 mg/kg/day; with rat [11] (group: maternal, systemic / in life observation / body weight / body weight + systemic / in life observation / body weight / body weight gain + systemic / in…), 1100 mg/kg/day; with mouse [12] it was 240 mg/kg/day; with mouse [13], 900 mg/kg/day; with rat [14] (setting [38]), 300 mg/kg/day. Further, the lowest observed adverse effect level (LOAEL) was above 2200 mg/kg/day with rat [5] (setting [25]); above 2200 mg/kg/day in the series with rat [5] (setting [26]); 500 mg/kg/day with rat [6] (systemic / in life observation / body weight / body weight + systemic / pathology microscopic / pancreas / hyperplasia); 1250 mg/kg/day with rat [7] (setting [28]); above 2330 mg/kg/day in the series on mouse [8] (setting [29]); above 2330 mg/kg/day in the series with mouse [8] (setting [30]). Also, the LOAEL in the series on rat [9] (setting [31]) was above 500 mg/kg/day; in the series on rat [9] (setting [32]), above 500 mg/kg/day; with rat [9] (setting [33]) it was above 500 mg/kg/day; in the series on rat [10] (setting [34]) it was 100 mg/kg/day; with rat [10] (setting [32]) it was above 400 mg/kg/day; in the series with rat [10] (setting [35]), above 400 mg/kg/day. For the same compound, the lowest-observed-adverse-effect level (LOAEL) in the series with rat [11] (setting [36]) was above 1640 mg/kg/day; in the series on rat [11] (setting [37]) it was above 1640 mg/kg/day; in the series on mouse [12], above 3750 mg/kg/day; with mouse [13] it was 900 mg/kg/day; in the series with rat [14] (setting [39]), above 600 mg/kg/day. The NEL is 200 mg/kg/day in the series with rat [5] (setting [25]); 20 mg/kg/day in the series on rat [5] (setting [26]); below 120 mg/kg/day in the series on rat [6] (setting [27]); 60 mg/kg/day in the series on rat [7] (setting [28]); 182 mg/kg/day in the series with mouse [8] (setting [29]); 182 mg/kg/day with mouse [8] (setting [30]). The NEL was 20 mg/kg/day with rat [9] (setting [31]); 20 mg/kg/day in the series with rat [9] (setting [32]); 100 mg/kg/day in the series with rat [9] (setting [33]); below 100 mg/kg/day in the series on rat [10] (setting [34]); 100 mg/kg/day in the series with rat [10] (setting [32]); 200 mg/kg/day in the series on rat [10] (setting [35]). In addition, the NEL in the series with rat [11] (setting [36]) was 420 mg/kg/day; in the series with rat [11] (setting [37]), 420 mg/kg/day; in the series on mouse [12], below 240 mg/kg/day; in the series with mouse [13] it was below 900 mg/kg/day; in the series on rat [14] (setting [38]), below 300 mg/kg/day. Further, the NOAEL in the series with rat [5] (setting [25]) was at least 2200 mg/kg/day; with rat [5] (setting [26]), at least 2200 mg/kg/day; in the series with rat [6] (systemic / in life observation / body weight / body weight + systemic / pathology microscopic / pancreas / hyperplasia + systemic / …), 240 mg/kg/day; in the series on rat [7] (setting [28]), 550 mg/kg/day; in the series with mouse [8] (setting [29]) it was at least 2330 mg/kg/day; in the series with mouse [8] (setting [30]) it was at least 2330 mg/kg/day. Besides, the NOAEL in the series on rat [9] (setting [31]) was at least 500 mg/kg/day; in the series with rat [9] (setting [32]), at least 500 mg/kg/day; in the series with rat [9] (setting [33]) it was at least 500 mg/kg/day; with rat [10] (setting [34]), below 100 mg/kg/day; in the series on rat [10] (setting [32]), at least 400 mg/kg/day; with rat [10] (setting [35]), at least 400 mg/kg/day. Moreover, the NOAEL with rat [11] (setting [36]) was at least 1640 mg/kg/day; in the series with rat [11] (setting [37]), at least 1640 mg/kg/day; in the series with mouse [12] it was at least 3750 mg/kg/day; in the series on mouse [13], below 900 mg/kg/day; in the series with rat [14] (setting [39]), at least 600 mg/kg/day.

Regarding `CC(=O)[C@H]1CC[C@H]2[C@@H]3CCC4=CC(=O)CC[C@]4(C)[C@H]3CC[C@]12C` [Progesterone], in the series on dog (setting [40]), the lowest observed adverse effect level (LOAEL) was above 22.5 mg/kg/day and the NOAEL is at least 22.5 mg/kg/day. In the series with dog (setting [41]), the LEL worked out at 2.5 mg/kg/day and the NEL was below 2.5 mg/kg/day.

As to `CC(C)NCC(O)COc1cccc2ccccc12.Cl` (stereo not drawn) [Propranolol hydrochloride], in the series with rat [15], the LEL was 5 mg/kg/day, the LOAEL was above 5 mg/kg/day, the NEL was below 5 mg/kg/day and the NOAEL was at least 5 mg/kg/day. In the series with rat [16], the LEL is 10 mg/kg/day, the LOAEL was above 10 mg/kg/day, the NEL is below 10 mg/kg/day and the NOAEL is at least 10 mg/kg/day.
